Literature values, collected in US20220248734A1, “NUTRITIONAL HEALTH SUPPLEMENTS” (MAYO FOUNDATION FOR MEDICAL EDUCATION AND RESEARCH, priority 2019, published 2022).

Conditions: NAC received within 24 hours of head injury from a blast

CC(=O)N[C@@H](CS)C(=O)O [NAC, N-acetyl cysteine]
side effects: no reported side effects | symptom resolution: significantly increases symptom resolution
